In ChEMBL document CHEMBL1152136, “2-Trifluoroacetylthiophene oxadiazoles as potent and selective class II human histone deacetylase inhibitors” (Bioorg Med Chem Lett, 2008):

Experiments:
[1] = biological target: Histone deacetylase 3 (Homo sapiens, UniProt O15379); test: Inhibition of HDAC3
[2] = biological target: Histone deacetylase 1 (Homo sapiens, UniProt Q13547); test: Inhibition of HDAC1
[3] = biological target: T1, Protein deacetylase HDAC6 (Homo sapiens, UniProt Q9UBN7); test: Inhibition of HDAC6
T1 sequence (Q9UBN7 whole entry): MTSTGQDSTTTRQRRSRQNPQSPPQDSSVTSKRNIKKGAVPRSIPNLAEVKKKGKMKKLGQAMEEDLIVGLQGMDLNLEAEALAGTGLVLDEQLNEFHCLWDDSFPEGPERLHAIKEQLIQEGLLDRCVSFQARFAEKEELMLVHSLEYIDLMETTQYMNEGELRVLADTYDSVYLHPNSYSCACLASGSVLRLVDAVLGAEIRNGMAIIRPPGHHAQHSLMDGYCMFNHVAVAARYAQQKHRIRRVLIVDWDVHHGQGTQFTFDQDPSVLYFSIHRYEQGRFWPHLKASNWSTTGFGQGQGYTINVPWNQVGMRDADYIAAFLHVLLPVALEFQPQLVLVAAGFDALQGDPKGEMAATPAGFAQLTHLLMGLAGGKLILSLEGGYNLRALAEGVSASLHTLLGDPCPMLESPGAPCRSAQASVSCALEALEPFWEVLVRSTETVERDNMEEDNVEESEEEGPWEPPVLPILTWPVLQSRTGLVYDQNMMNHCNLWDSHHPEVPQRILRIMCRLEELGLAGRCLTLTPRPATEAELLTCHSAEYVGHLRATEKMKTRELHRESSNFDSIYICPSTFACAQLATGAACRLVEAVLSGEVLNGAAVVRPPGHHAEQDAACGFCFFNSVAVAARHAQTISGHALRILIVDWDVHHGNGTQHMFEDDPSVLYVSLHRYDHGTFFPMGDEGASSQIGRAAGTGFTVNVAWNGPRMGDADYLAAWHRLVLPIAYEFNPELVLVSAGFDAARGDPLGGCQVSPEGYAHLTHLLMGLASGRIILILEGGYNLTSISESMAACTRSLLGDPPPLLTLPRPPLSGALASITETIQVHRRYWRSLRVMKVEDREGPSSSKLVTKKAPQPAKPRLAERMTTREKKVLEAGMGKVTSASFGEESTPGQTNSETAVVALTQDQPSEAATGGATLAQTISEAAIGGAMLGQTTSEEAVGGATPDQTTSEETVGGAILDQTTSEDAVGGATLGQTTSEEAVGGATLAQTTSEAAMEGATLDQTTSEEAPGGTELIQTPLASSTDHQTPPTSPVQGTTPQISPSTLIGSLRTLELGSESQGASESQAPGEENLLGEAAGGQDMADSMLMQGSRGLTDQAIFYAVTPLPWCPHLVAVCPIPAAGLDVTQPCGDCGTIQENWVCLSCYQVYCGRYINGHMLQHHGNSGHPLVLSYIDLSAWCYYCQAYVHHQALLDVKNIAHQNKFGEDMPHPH

[4] = biological target: Histone deacetylase 4 (Homo sapiens, UniProt P56524); test: Inhibition of His-tagged HDAC4 catalytic domain expressed in Escherichia coli
[5] = Metabolic stability in S9 fraction of human HCT116 cells assessed as half life in presence of NADPH and regenerating system; type: ADME, cell-based, HCT-116
[6] = Metabolic stability in human HCT116 cells assessed as half life at 5 uM in presence of 10% FBS; type: ADME, cell-based, HCT-116
[7] = Selectivity for His-tagged HDAC4 catalytic domain over HDAC1
[8] = biological target: T1, Protein deacetylase HDAC6; test: Inhibition of HDAC6 in human HCT116 cells assessed as inhibition of alpha-tubulin deacetylation; type: cell-based, HCT-116

Chain of Histone deacetylase 1 (Q13547 whole entry): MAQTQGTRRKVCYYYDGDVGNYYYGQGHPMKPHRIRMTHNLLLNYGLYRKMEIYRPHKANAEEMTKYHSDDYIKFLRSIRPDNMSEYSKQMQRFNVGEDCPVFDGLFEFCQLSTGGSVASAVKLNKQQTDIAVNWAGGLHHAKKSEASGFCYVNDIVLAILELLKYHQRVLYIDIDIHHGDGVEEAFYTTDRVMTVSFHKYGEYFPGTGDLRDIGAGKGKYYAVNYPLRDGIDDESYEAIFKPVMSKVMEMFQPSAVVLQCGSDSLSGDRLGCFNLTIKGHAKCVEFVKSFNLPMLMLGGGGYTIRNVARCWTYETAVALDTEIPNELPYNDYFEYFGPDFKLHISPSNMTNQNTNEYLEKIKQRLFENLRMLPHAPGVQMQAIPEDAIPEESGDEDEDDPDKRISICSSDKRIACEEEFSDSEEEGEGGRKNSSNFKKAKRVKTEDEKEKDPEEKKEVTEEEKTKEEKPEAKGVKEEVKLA
Chain of Histone deacetylase 4 (P56524 whole entry, the tested form may be a part): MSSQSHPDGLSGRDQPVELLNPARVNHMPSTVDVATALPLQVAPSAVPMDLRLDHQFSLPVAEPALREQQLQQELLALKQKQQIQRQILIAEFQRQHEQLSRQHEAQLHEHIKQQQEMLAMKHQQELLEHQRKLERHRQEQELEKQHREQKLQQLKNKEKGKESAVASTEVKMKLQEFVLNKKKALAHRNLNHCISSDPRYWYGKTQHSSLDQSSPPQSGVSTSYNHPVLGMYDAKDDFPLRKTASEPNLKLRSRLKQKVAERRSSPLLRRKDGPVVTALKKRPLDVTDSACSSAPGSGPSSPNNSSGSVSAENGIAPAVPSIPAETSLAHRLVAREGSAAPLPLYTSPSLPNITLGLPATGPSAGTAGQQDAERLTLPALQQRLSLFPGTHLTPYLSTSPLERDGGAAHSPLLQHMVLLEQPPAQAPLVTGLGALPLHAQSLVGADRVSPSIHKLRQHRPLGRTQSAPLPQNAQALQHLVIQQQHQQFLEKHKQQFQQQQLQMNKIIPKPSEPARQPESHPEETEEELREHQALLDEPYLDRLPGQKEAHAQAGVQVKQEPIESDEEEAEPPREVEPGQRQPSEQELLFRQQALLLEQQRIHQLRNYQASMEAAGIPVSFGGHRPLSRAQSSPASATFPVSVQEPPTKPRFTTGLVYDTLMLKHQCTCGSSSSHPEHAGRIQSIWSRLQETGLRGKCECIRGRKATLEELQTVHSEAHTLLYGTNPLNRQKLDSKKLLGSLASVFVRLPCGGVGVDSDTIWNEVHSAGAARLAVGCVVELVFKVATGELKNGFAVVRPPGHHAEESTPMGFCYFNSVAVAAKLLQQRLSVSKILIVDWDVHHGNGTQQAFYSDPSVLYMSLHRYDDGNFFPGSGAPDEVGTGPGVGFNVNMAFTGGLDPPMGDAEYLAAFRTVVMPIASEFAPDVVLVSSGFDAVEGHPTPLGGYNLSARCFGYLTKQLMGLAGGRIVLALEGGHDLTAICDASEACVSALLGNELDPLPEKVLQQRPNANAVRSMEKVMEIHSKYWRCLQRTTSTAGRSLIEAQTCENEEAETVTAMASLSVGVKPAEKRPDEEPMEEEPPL
Chain of Histone deacetylase 3 (O15379 whole entry): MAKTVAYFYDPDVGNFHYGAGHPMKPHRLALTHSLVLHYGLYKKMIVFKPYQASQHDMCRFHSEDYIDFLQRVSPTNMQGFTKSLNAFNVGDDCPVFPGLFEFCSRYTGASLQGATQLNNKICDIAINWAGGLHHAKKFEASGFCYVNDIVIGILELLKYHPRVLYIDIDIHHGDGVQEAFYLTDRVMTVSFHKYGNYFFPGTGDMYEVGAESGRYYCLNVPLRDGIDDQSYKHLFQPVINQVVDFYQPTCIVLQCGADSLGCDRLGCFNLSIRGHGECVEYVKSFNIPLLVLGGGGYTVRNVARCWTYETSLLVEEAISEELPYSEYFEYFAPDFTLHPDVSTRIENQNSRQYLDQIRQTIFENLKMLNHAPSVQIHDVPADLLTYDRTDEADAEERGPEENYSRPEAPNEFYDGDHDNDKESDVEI

Row | Structure (SMILES) | IC50 [1] [nM] | IC50 [2] [µM] | IC50 [3] [nM] | IC50 [4] [nM] | half-life [5] [min] | half-life at 5 µM [6] [min] | Ratio IC50 [7] | IC50 [8] [nM]
1 | CC(C)(C)c1ccc(-c2noc(-c3ccc(C(=O)C(F)(F)F)s3)n2)cc1 | > 1000 | 16.6 | 3540 | > 2000 |  |  |  | 
2 | CN(Cc1ccccc1)C(=O)c1ccc(C(=O)C(F)(F)F)s1 |  |  |  |  | 15 |  |  | 
3 | O=C(c1ccc(-c2nc(CS(=O)(=O)Cc3ccc(F)cc3)no2)s1)C(F)(F)F | > 1000 | 6.55 | 700 | 60 | 35 | 330 |  | 
4 | O=C(c1ccc(-c2nc(-c3ccc(C(F)(F)F)cc3)no2)s1)C(F)(F)F |  | > 10 | 11000 | 200 |  |  |  | 
5 | O=C(c1ccc(-c2nc(-c3ccc(F)cc3)no2)s1)C(F)(F)F | > 1000 | 5.9 | 270 | 220 |  |  |  | 
6 | O=C(c1ccc(-c2nc(-c3ccc(Cl)cc3Cl)no2)s1)C(F)(F)F |  | > 5 | 3000 | 240 |  |  |  | 
7 | Cc1noc(-c2ccc(C(=O)C(F)(F)F)s2)n1 | 7100 | 7.6 | 650 | 75 | > 120 |  |  | 
8 | CCNC(=O)c1ccc(C(=O)C(F)(F)F)s1 | > 10000 |  |  |  |  |  |  | 
9 | O=C(c1ccc(-c2nc(-c3ccncc3)no2)s1)C(F)(F)F |  | > 10 | 570 | 590 |  |  |  | 
10 | Cc1ccc(-c2noc(-c3ccc(C(=O)C(F)(F)F)s3)n2)cc1 |  | 6.8 | 860 | 110 |  |  |  | 
11 | O=C(Cc1noc(-c2ccc(C(=O)C(F)(F)F)s2)n1)N1CCCC1 |  | 5.9 | 710 | 60 |  |  | > 75 | 
12 | Cc1cccc(-c2noc(-c3ccc(C(=O)C(F)(F)F)s3)n2)c1 | > 1000 | 6.54 | 680 | 280 |  |  |  | 
13 | O=C(c1ccc(-c2ncc(-c3ccccc3)s2)s1)C(F)(F)F |  | > 10 | 1350 | 1500 |  |  |  | 
14 | O=C(c1ccc(-c2nc(-c3ccccc3)no2)s1)C(F)(F)F | > 1000 | 7.4 | 580 | 110 |  |  |  | 
15 | O=C(c1ccc(-c2nc(COc3ccc(-c4nnco4)cc3)no2)s1)C(F)(F)F |  | 4.8 |  |  | 18 |  |  | 
16 | O=C(c1ccc(-c2nc(-c3cccc(C(F)(F)F)c3)no2)s1)C(F)(F)F | > 1000 | 17.5 | 2450 | 320 |  |  |  | 

Other lines, results leading:

Row | IC50 [1] [nM] | IC50 [2] [µM] | IC50 [3] [nM] | IC50 [4] [nM] | half-life [5] [min] | half-life at 5 µM [6] [min] | Ratio IC50 [7] | IC50 [8] [nM] | Structure (SMILES)
17 |  | 2.2 | 840 | 70 |  |  |  |  | O=C(c1ccc(-c2nc(-c3cccnc3)no2)s1)C(F)(F)F
18 |  | 2.8 | 500 | 90 |  |  |  |  | O=C(c1ccc(-c2nc(-c3ccccn3)no2)s1)C(F)(F)F
19 | 520 | 0.467 | 370 | 243 |  |  |  |  | O=C(NCc1ccccc1)c1ccc(C(=O)C(F)(F)F)s1
20 | > 1000 | 1.8 | 600 | 270 |  |  |  |  | Cc1ccc(-c2nnc(-c3ccc(C(=O)C(F)(F)F)s3)o2)cc1
21 | > 1000 | 2.47 | 320 | 30 | > 120 | 780 | > 70 | 640 | CS(=O)(=O)Cc1noc(-c2ccc(C(=O)C(F)(F)F)s2)n1
22 | > 1000 | 2.22 | 240 | 30 | 45 | 720 | > 70 | 500 | CCCS(=O)(=O)Cc1noc(-c2ccc(C(=O)C(F)(F)F)s2)n1
23 | > 1000 | 3.89 | 520 | 35 | 44 | 360 | > 100 |  | O=C(c1ccc(-c2nc(CS(=O)(=O)c3cccs3)no2)s1)C(F)(F)F
24 |  | 2.9 | 670 | 95 |  |  |  |  | O=C(c1ccc(-c2nc(-c3cccs3)no2)s1)C(F)(F)F
25 | > 1000 | 4.2 | 580 | 120 | > 120 |  |  |  | O=C(c1ccc(-c2nc(-c3ccc(F)cc3F)no2)s1)C(F)(F)F
26 | 630 | 0.99 | 170 | 15 | 35 |  | 70 |  | O=C(c1ccc(-c2nc(Cc3cccs3)no2)s1)C(F)(F)F
27 | 500 | 2.6 | 160 | 450 |  |  |  |  | O=C(c1ccc(-c2nnc(-c3cccs3)o2)s1)C(F)(F)F
28 | 500 | 2.97 | 330 | 420 |  |  |  |  | O=C(c1ccc(-c2nnc(-c3ccccc3)o2)s1)C(F)(F)F
29 | > 1000 | 1.17 | 410 | 15 | 25 |  | > 75 |  | O=C1COc2ccccc2N1Cc1noc(-c2ccc(C(=O)C(F)(F)F)s2)n1
